Measurements taken from publication PMC8032764 (Scientific Reports, 2021).

Experiments:
[1] = Plasma exposure in EEG study; assay type: in vivo; conditions: human, oral, 240 mg twice daily, mean ± SD
Serotonin 5-HT5a = system: T1, Serotonin 5-HT5a; experiment: Cerep binding; parameters: species or system human; conditions: 10 μM; [3H]LSD; hum. recomb. (CHO)
T1 construct: purchased Eurofins Cerep

[2] = system: Adrenergic α1 (non-selective); experiment: Cerep binding; conditions: 10 μM; [3H]prazosin; rat cerebral cortex
[3] = system: Ca2+ channel, L-type (phenylalkylamine site); experiment: Cerep binding; conditions: 10 μM; [3H](-)D 888; rat cerebral cortex
Adrenergic β1 = system: T2, Adrenergic β1; experiment: Cerep binding; parameters: species or system human; conditions: 10 μM; [3H](-)CGP 12177; hum. recomb. (HEK-293)
T2 construct: host or cells: HEK-293

male F-344 rats = experiment: Social approach avoidance test
Protocol: Experiments on social approach avoidance were performed as described previously by[41] and[14]. A tracking system (Ethovision, Noldus, The Netherlands) was used to analyse each rat’s pathway.

GABAA-α5 receptors = experiment: Receptor occupancy estimated from free plasma concentrations, object retrieval; assay type: in vivo, Macaca fascicularis
Text: Free plasma concentrations were used to estimate receptor occupancy.

Serotonin transporter = system: T3, Serotonin transporter; experiment: Cerep binding; parameters: species or system human; conditions: 10 μM; [3H]imipramine; hum. recomb. (CHO)
T3 construct: host or cells: CHO

Vasopressin V1A = system: T4, Vasopressin V1A; experiment: Cerep binding; parameters: species or system human; conditions: 10 μM; [3H]AVP; hum. recomb. (CHO)
T4 construct: host or cells: CHO

[4] = system: Somatostatin (non-selective); experiment: Cerep binding; conditions: 10 μM; [125I]Tyr11-somatostatin-14; mouse, AtT-20 cells
Serotonin 5-HT1A = system: T5, Serotonin 5-HT1A; experiment: Cerep binding; parameters: species or system human; conditions: 10 μM; [3H]8-OH-DPAT; hum. recomb. (HEK-293)
T5 construct: purchased Eurofins Cerep

healthy male subjects = experiment: Study WP25366 multiple-ascending dose, safety EEG and plasma exposure; assay type: in vivo, human
Protocol: 2) Study WP25366 Multiple-Ascending Dose (MAD) in Healthy Volunteers
Of the 32 healthy male subjects who were randomized to treatment, 24 subjects were […]
participants had several EEGs and several participants had sleep assessments with EEG that were also evaluated:
• Cohort 1: 80 mg (n dosed: 6)
• Cohort 2: 160 mg (n dosed: 6)
• Cohort 3: 370 mg (n dosed: 6)
• Cohort 4: 1000 mg (n dosed: 6)
EEG monitoring was implemented in this study starting at about 1 hour prior to dosing and then up to approximately 7 hours after dosing, on selected days during the dosing period. All sleep recordings were performed for approximately 8 h from 23.00 to 07.00. The objective of such monitoring was detection if any, of specific EEG patterns such as spikes, sharp waves, and spike-and-wave discharges that would be indicative of epileptiform changes or non - […]
The day and night EEG recordings were subject to expert safety review, with the objective of identifying any pro-convulsive signals. Following this safety review, EEG results were recorded either as normal, normal variant or abnormal variant. […]
of epileptogenic effects (e.g., generalized spike-wave discharges) in any subject in any dose group at any time points during the study. The review of the day and night EEG recordings […]
160 mg BID, 370 mg BID and 1000 mg BID, was safe and ha d no impact on brain electrical activity. Maximum plasma concentrations at Day 13 were 2120, 4110, 6040, and […]
3) Study WP29402 Drug-Drug Interaction (DDI) Itraconazole in Healthy Volunteers This was an open-label, three treatment, fixed sequence crossover study to investigate the […]
healthy male and female volunteers (age range 18-60 years; n: 12). As systemic basmisanil exposure was predicted to be higher than exposures achiev ed in previous clinical studies, regular EEG examinations were included and reviewed by a neurologist. Multiple oral doses […]
with the CYP3A inhibitor, itraconazole (200 m g OD).
Baseline EEG assessments were performed prior to the study (resting EEG eyes open/closed, intermittent photic stimulation, hyperventilation). On treatment days (1, 3, 5, 8) […]
hours and resting EEG eyes open/closed w ere performed. […]
administered with itraconazole.

Plasma levels, PTZ test = assay type: in vivo, rat
Protocol: Following tonic convulsions, rats were immediately euthanized by decapitation. All other rats were euthanized by decapitation at the end of the 30 min observation period. Plasma samples were collected and frozen at − 80 °C for analysis of drug content.
The calibration range was from 1.0 to 5000 ng/mL. After protein precipitation with ethanol, the sample solution was injected onto a Gemini C18 trapping column (2 × 10 mm; Phenomenex, Torrance, CA, USA) and polar endogenous compounds and salts were rinsed off. Analytical separation was performed on an Atlantis T3 column (2.1 × 50 mm) (Waters, Milford, MA, USA), using methanol/water containing 0.1% formic acid as mobile phase. A drug analogue was used as an internal standard.

[5] = system: T6, Calcitonin gene related peptide (CGRP); experiment: Cerep binding; parameters: species or system human; conditions: 10 μM; [125I]hCGRPα; hum. recomb. (CHO)
T6 construct: purchased Eurofins Cerep

Nociceptin (ORL1) = system: T7, Nociceptin (ORL1); experiment: Cerep binding; parameters: species or system human; conditions: 10 μM; [3H]nociceptin; hum. recomb. (HEK-293)
T7 construct: host or cells: HEK-293

Kv channel = experiment: Cerep binding; conditions: 10 μM; [125I]α−dendrotoxin; rat cerebral cortex
[6] = system: T8, Prostanoid TP (TXA2/PGH2); experiment: Cerep binding; parameters: species or system human; conditions: 10 μM; [3H]SQ 29548; hum. recomb. (HEK-293)
T8 construct: host or cells: HEK-293

Angiotensin AT1 = system: T9, Angiotensin AT1; experiment: Cerep binding; parameters: species or system human; conditions: 10 μM; [125I][Sar1,Ile8]-AT-II; hum. recomb. (HEK-293)
T9 construct: purchased Eurofins Cerep

[7] = Pharmacokinetics, single intravenous dosing; assay type: in vivo; conditions: Beagle, dog, plasma, 1.0 mg/kg i.v.
Neuropeptide Y2 = system: T10, Neuropeptide Y2; experiment: Cerep binding; parameters: species or system human; conditions: 10 μM; [125I]peptide YY; hum., KAN-TS cells
T10 construct: purchased Eurofins Cerep

Cc1onc(-c2ccc(F)cc2)c1COc1ccc(C(=O)N2CCS(=O)(=O)CC2)cn1 [basmisanil]
concentration at 1 h ([1]; day 14, 1 h post morning dose): 3280 ± 888 ng/mL
concentration at 4 h ([1]; day 14, 4 h post morning dose): 4030 ± 842 ng/mL
% Inhibition (Serotonin 5-HT5a): 5%
% Inhibition [2]: -1%
% Inhibition [3]: -3%
% Inhibition (Adrenergic β1): 6%
time spent in the social compartment (male F-344 rats; 3–100 mg/kg p.o., 1 h prior to testing): did not significantly reduce the time spent in the social compartment
anxiogenic-like effect (time in social compartment and in hidden area) (male F-344 rats; up to 100 mg/kg p.o.): did not have an anxiogenic-like effect
estimated receptor occupancy (GABAA-α5 receptors; 3 mg/kg p.o.): about 30%
estimated receptor occupancy (GABAA-α5 receptors; 10 mg/kg p.o.): around 50%
% Inhibition (Serotonin transporter): 5%
% Inhibition (Vasopressin V1A): 13%
% Inhibition [4]: 18%
% Inhibition (Serotonin 5-HT1A): 0%
Maximum plasma concentration at Day 13 (healthy male subjects; 80 mg BID): 2120 ng/mL
Maximum plasma concentration at Day 13 (healthy male subjects; 160 mg BID): 4110 ng/mL
Maximum plasma concentration at Day 13 (healthy male subjects; 370 mg BID): 6040 ng/mL
Maximum plasma concentration at Day 13 (healthy male subjects; 1000 mg BID): 8520 ng/mL
EEG assessments (healthy male subjects; 80, 160, 370 and 1000 mg BID): revealed no findings of clinical concern
free plasma concentration (Plasma levels, PTZ test; female rats, 30 mg/kg): 2452 nM
free plasma concentration (Plasma levels, PTZ test; female rats, 100 mg/kg): 5079 nM
free plasma concentration (Plasma levels, PTZ test; male rats, 100 mg/kg): 1622 nM
% Inhibition [5]: -6%
% Inhibition (Nociceptin (ORL1)): -4%
% Inhibition (Kv channel): -1%
% Inhibition [6]: 5%
% Inhibition (Angiotensin AT1): 2%
half-life ([7]; n=3): 9.8 ± 0.8 h
clearance ([7]; n=3, read-out: Total CL): 2.2 ± 0.2 mL/min/kg
Vd ([7]; n=3, read-out: Vss): 1.7 ± 0.2 L/kg
% Inhibition (Neuropeptide Y2): 7%
